Test results from patent US5877174A, “2,3-diketopiperazine derivatives or their salts” (Toyama Chemical Co., Ltd., priority 1994, dated 1999).
Structures can show the parent of a compound that is named as a salt.

test system: human platelet aggregation; test: Inhibitory effect on human platelet aggregation (ADP-induced, platelet-rich plasma, aggreometer); type: cell-based; conditions: 5×10^8 platelets/ml, ADP final concentration 3 μM, 37° C., 3 min preincubation, read-out: 50% inhibitory concentration (IC50)
Protocol: A mixture of blood collected from a human elbow vein and a 3.8% sodium citrate solution in the ratio of 9:1 (v/v) was centrifuged at room temperature to obtain platelet-rich plasma and platelet-poor plasma. Then, the platelet-rich plasma was diluted with the platelet-poor plasma to adjust the number of platelets to 5×10^8 platelets/ml. […] After 3 minutes, 18.75 μl of adenosine 5'-diphosphate (ADP) (final concentration: 3 μM) was added to the mixture and a change in the intensity of transmitted light caused by the aggregation was recorded with the lapse of time with an aggreometer.

Which IC50 does the source give for `N=C(N)c1ccc(OCCCn2ccn(CC(=O)O)c(=O)c2=O)cc1` [Example 17, [4-[3-(4-Amidinophenoxy)propyl]-1,2,3,4-tetrahydro-2,3-dioxopyrazin-1-yl]acetic acid hydrochloride] here?
The IC50 was 42000 nM.

Which IC50 does the source give for `N=C(N)c1ccc(OCCCN2CCN(C(CC(=O)O)c3ccco3)C(=O)C2=O)cc1` (stereo not shown) [Example 67] here?
Its IC50 is 570 nM.

With `CC(C)(C)OC(=O)CN1CCN(CCCC(=O)Nc2ccc(C(=N)NC(=O)OCc3ccccc3)cc2)C(=O)C1=O` [Example 106, tert-Butyl [4-[4-(4-benzyloxycarbonylamidino-phenylamino) -4-oxobutyl]-2,3-dioxopiperazin-1-yl]acetate] as the compound, how does the IC50 read?
Its IC50 is 1000 nM.

With `N=C(N)c1ccc(OCCCN2CCN(CC(C(=O)O)c3ccccc3)C(=O)C2=O)cc1` (stereo not shown) [Example 87, 3-[4-[3-(4-Amidinophenoxy)propyl]-2,3-dioxopiperazin-1-yl]-2-phenylpropionic acid] as the compound, how does the IC50 read?
Its IC50 is 530 nM.

How did the IC50 turn out when `N=C(N)c1ccc(OCCCN2CCN(C(CC(=O)O)C3CC3)C(=O)C2=O)cc1` (stereo not shown) [Example 83, 3-[4-[3-(4-Amidinophenoxy)propyl]-2,3-dioxopiperazin-1-yl]-3-(cyclopropyl)propionic acid] was run?
The IC50 was 1100 nM.

With `N=C(N)c1ccc(OCCN2CCN(CCCC(=O)O)C(=O)C2=O)cc1` [Example 16] as the compound, how does the IC50 read?
The IC50 was 2200 nM.

How did the IC50 turn out when `N=C(N)c1ccc(OCCCCCN2CCN(CC(=O)O)C(=O)C2=O)cc1` [Example 13] was run?
Its IC50 is 10000 nM.

For `CC(CC(=O)O)N1CCN(CCCOc2ccc(C(=N)N)cc2)C(=O)C1=O` (stereo not shown) [Example 59, 3-[4-[3-(4-Amidinophenoxy)propyl]-2,3-dioxopiperazin-1-yl]-3-methylpropionic acid], which IC50 is on record?
The IC50 was 370 nM.

With `CCCCC(CC(=O)O)N1CCN(CCCOc2ccc(C(=N)N)cc2)C(=O)C1=O` (stereo not shown) [Example 82, 3-[4-[3-(4-Amidinophenoxy)propyl]-2,3-dioxopiperazin-1-yl]-3-(butyl)propionic acid] as the compound, how does the IC50 read?
The IC50 was 480 nM.

How did the IC50 turn out when `COc1cccc(C(CC(=O)O)N2CCN(CCCOc3ccc(C(=N)N)cc3)C(=O)C2=O)c1` (stereo not shown) [Example 78] was run?
The IC50 was 150 nM.

How did the IC50 turn out when `N=C(N)c1ccc(C(=O)NCCCN2CCN(CC(=O)O)C(=O)C2=O)cc1` [Example 104, [4-[3-(4-Amidinobenzoylamino)propyl)-2,3-dioxopiperazin-1-yl]acetic acid] was run?
The IC50 was 800 nM.

With `N=C(N)c1ccc(OCCCN2CCN(C(CC(=O)O)c3ccc(F)cc3)C(=O)C2=O)cc1` (stereo not shown) [Example 65] as the compound, how does the IC50 read?
Its IC50 is 290 nM.

For `N=C(N)c1ccc(C(=O)NCCN2CCN(CCC(=O)O)C(=O)C2=O)cc1` [Example 99], which IC50 is on record?
Its IC50 is 2100 nM.

`N=C(N)c1ccc(OCCCN2CCN(CCC(=O)O)C(=O)C2=O)cc1` [Example 15] was tested. Which IC50 did it give?
The IC50 was 4700 nM.

Which IC50 does the source give for `N=C(N)c1ccc(OCCCN2CCN(C(CC(=O)O)c3cccnc3)C(=O)C2=O)cc1` (stereo not shown) [Example 58, 3-[4-[3-(4-Amidinophenoxy)propyl]-2,3-dioxopiperazin-1-yl]-3-(pyridin-3-yl)propionic acid] here?
The IC50 was 54 nM.

For `N=C(N)c1ccc(OCCCN2CCN(C(CC(=O)O)c3cccc4ccccc34)C(=O)C2=O)cc1` (stereo not shown) [Example 85], which IC50 is on record?
The IC50 was 290 nM.

`N=C(N)c1ccc(OCCCN2CCN(C(CC(=O)O)c3cccs3)C(=O)C2=O)cc1` (stereo not shown) [Example 61] was tested. Which IC50 did it give?
The IC50 was 120 nM.

For `N=C(N)c1ccc(OCCCCN2CCN(C(C(=O)O)c3ccccc3)C(=O)C2=O)cc1` (stereo not drawn) [Example 19, α-[4-[4-(4-Amidinophenoxy)butyl]-2,3-dioxopiperazin-1yl]-α-phenylacetic acid], which IC50 is on record?
Its IC50 is 140 nM.

How did the IC50 turn out when `N=C(N)c1ccc(S(=O)(=O)NCCCN2CCN(CC(=O)O)C(=O)C2=O)cc1` [105(2), [4-[3-(4-Amidinobenzenesulfonylamino)propyl]-2,3-dioxopiperazin-1-yl]aceticacid] was run?
Its IC50 is 950 nM.

`COc1ccc(C(CC(=O)O)N2CCN(CCCOc3ccc(C(=N)N)cc3)C(=O)C2=O)cc1` (stereo not shown) [Example 64] was tested. Which IC50 did it give?
The IC50 was 160 nM.

Which IC50 does the source give for `N=C(N)c1ccc(OCCCCN2CCN(C(CC(=O)O)c3cccnc3)C(=O)C2=O)cc1` (stereo not shown) [Example 79, 3-[4-[4-(4-Amidinophenoxy)butyl]-2,3-dioxopiperazin-1-yl]-3-(pyridin-3-yl)propionic acid] here?
Its IC50 is 3500 nM.

With `N=C(N)c1ccc(OCCCN2CCN(CC(Cc3ccc4c(c3)OCO4)C(=O)O)C(=O)C2=O)cc1` (stereo not shown) [Example 20, 2-[(1,3-Benzodioxol-5-yl)methyl]-3-[4-[3-(4-amidinophenoxy)propyl]-2,3-dioxopiperazin-1-yl]propionic acid] as the compound, how does the IC50 read?
Its IC50 is 900 nM.

Which IC50 does the source give for `N=C(N)c1ccc(C(=O)NCCN2CCN(CC(=O)O)C(=O)C2=O)cc1` [Example 103, [4-[2-(4-Amidinobenzoylamino)ethyl]-2,3-dioxopiperazin-1-yl]acetic acid] here?
Its IC50 is 1900 nM.

With `N=C(N)c1ccc(OCCCN2CCN(C(CC(=O)O)c3ccc4c(c3)OCO4)C(=O)C2=O)cc1` (stereo not shown) [Example 66, 3-[4-[3-(4-Amidinophenoxy)propyl]-2,3-dioxopiperazin-1-yl]-3-(1,3-benzodioxol-5-yl)propionic acid] as the compound, how does the IC50 read?
The IC50 was 140 nM.

`CCOC(=O)CC(c1cccnc1)N1CCN(CCCOc2ccc(C(=N)N)cc2)C(=O)C1=O` (stereo not shown) [Example 88, Ethyl 3-[4-[3-(4-amidinophenoxy)propyl]-2,3-dioxopiperazin-1yl]-3-(pyridin-3-yl)propionate hydrochloride] was tested. Which IC50 did it give?
Its IC50 is 3400 nM.

For `N=C(N)c1ccc(C(=O)NCCCN2CCN(CC(Cc3ccc4c(c3)OCO4)C(=O)O)C(=O)C2=O)cc1` (stereo not shown) [Example 102, 3-[4-[3-(4-Amidinobenzoylamino)propyl]-2,3-dioxopiperazin-1-yl]-2-[(1,3-benzodioxol-5-yl)methyl]-propionic acid], which IC50 is on record?
Its IC50 is 500 nM.

For `N=C(N)c1ccc(C(=O)NCCN2CCN(C(CC(=O)O)c3cccnc3)C(=O)C2=O)cc1` (stereo not shown) [Example 97, 3-[4-[2-(4-Amidinobenzoyl)aminoethyl]-2,3-dioxopiperazin-1yl]-3-(pyridin-3-yl)propionic acid], which IC50 is on record?
Its IC50 is 560 nM.

Which IC50 does the source give for `N=C(N)c1ccc(OCCCN2CCN(C(CC(=O)O)C(=O)O)C(=O)C2=O)cc1` (stereo not shown) [Example 62, 2-[4-[3-(4-Amidinophenoxy)propyl]-2,3-dioxopiperazin-1-yl]succinic acid] here?
Its IC50 is 3200 nM.

How did the IC50 turn out when `N=C(N)c1ccc(OCCCN2CCN(C(CC(=O)O)c3ccc(F)cc3F)C(=O)C2=O)cc1` (stereo not shown) [Example 77] was run?
Its IC50 is 140 nM.

How did the IC50 turn out when `N=C(N)c1ccc(OCCCN2CCN(CC(=O)O)C(=O)C2=O)cc1` [Example 10, [4-[3-(4-Amidinophenoxy)propyl]-2,3-dioxopiperazin-1yl]acetic acid hydrochloride] was run?
Its IC50 is 5000 nM.

test system: ddY strain male mice; test: Acute toxicity (intravenous, mice); type: in vivo; conditions: 300 mg/kg, intravenous (tail), physiological saline
Protocol: A solution of the compound of Example 58 in physiological saline was intravenously administered to a group consisting of 5 ddY strain male mice (average body weight: 27.5 g) each, in the tails, whereby the acute toxicity of the compound was investigated. As a result, no mouse died at a dose of the test compound of 300 mg/kg.

How did the “acute toxicity (mortality)” value turn out when `N=C(N)c1ccc(OCCCN2CCN(C(CC(=O)O)c3cccnc3)C(=O)C2=O)cc1` (stereo not shown) [Example 58, 3-[4-[3-(4-Amidinophenoxy)propyl]-2,3-dioxopiperazin-1-yl]-3-(pyridin-3-yl)propionic acid] was run?
Its value is “no mouse died”.
